Data taken from patent publication US20220400680A1, “USE OF ACYLCYANAMIDES OR SALTS THEREOF FOR REGULATING PLANT GROWTH” (Alzchem Trostberg GmbH, priority 2019, published 2022).

Assays:
[1] = system: Table apple, type Zabergäu-Renette (C2); experiment: Greenhouse test, cut apple branches C2 dipped in test solution, bud development stage; format: in vivo, Malus domestica; parameters: key to Bud development stage, apple branches C2: Stage 0: Buds unchanged; Stage 1: Buds slightly swollen, first green tips visible; Stage 2: strongly swollen, green buds; Stage 3: Buds before breaking open, leaf or flower root already visible; Stage 4: Flower buds fully developed, but still closed, white petals already visible. In the case of the grapevine, stage 4 was the unfolding of the first leaves; Stage 5: Flowers fully open or, in the case of grapevine, unfolding of the flower roots (“Gescheine”) on the fully leafed sprouts; settings: for Dormancy-breaking effect according to the definition, apple C2: stage 4 reached or exceeded after 36 days vs negative control
How it was run: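 Cut branches held in water jars in a greenhouse at about 22° C. under natural light after dipping in aqueous test solution: 0.15 mol substance (0.075 mol for bis-cyanamides) plus 0.15 g BreakThru OE-446 per 500 g. Bud development scored on a stage scale from closed buds to fully open flowers.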

[2] = system: Table apple, type Boiken apple (C1); experiment: Greenhouse test, cut apple branches C1 dipped in test solution, bud development stage; format: in vivo, Malus domestica; parameters: key to Bud development stage, apple branches C1: Stage 0: Buds unchanged; Stage 1: Buds slightly swollen, first green tips visible; Stage 2: strongly swollen, green buds; Stage 3: Buds before breaking open, leaf or flower root already visible; Stage 4: Flower buds fully developed, but still closed, white petals already visible. In the case of the grapevine, stage 4 was the unfolding of the first leaves; Stage 5: Flowers fully open or, in the case of grapevine, unfolding of the flower roots (“Gescheine”) on the fully leafed sprouts; settings: for Good to very good dormancy-breaking effect, apple C1: stage 4 reached or exceeded after 27 days vs negative control; for Dormancy-breaking effect according to the definition, apple C1: stage 4 reached or exceeded after 36 days vs negative control
How it was run: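 Cut Boiken apple branches kept in water jars in a greenhouse at about 22 °C under natural light and dipped in test solution. Solutions contained 0.15 mol test substance (0.075 mol for bis-cyanamides) plus 0.15 g BreakThru OE-446 per 500 g water. Bud development scored on a stage scale up to full flowering.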

[3] = system: Grape, type Pinot Noir (C4); experiment: Greenhouse test, cut wine sprouts C4 dipped in test solution, bud development stage; format: in vivo, Vitis vinifera subsp. vinifera; parameters: key to Bud development stage, wine sprouts C4: Stage 0: Buds unchanged; Stage 1: Buds slightly swollen, first green tips visible; Stage 2: strongly swollen, green buds; Stage 3: Buds before breaking open, leaf or flower root already visible; Stage 4: Flower buds fully developed, but still closed, white petals already visible. In the case of the grapevine, stage 4 was the unfolding of the first leaves; Stage 5: Flowers fully open or, in the case of grapevine, unfolding of the flower roots (“Gescheine”) on the fully leafed sprouts; settings: for Dormancy-breaking effect according to the definition, wine C4: stage 4 reached or exceeded after 36 days vs negative control
How it was run: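 Cut Pinot Noir grapevine sprouts were dipped in aqueous test solution (0.15 mol test substance, or 0.075 mol for bis-cyanamides, plus 0.15 g BreakThru OE-446 per 500 g total) and kept in water jars at about 22° C under natural light. Bud development was scored on a staged scale from closed buds to fully open flowers.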

[4] = system: Table cherry, type Burlat (C3); experiment: Greenhouse test, cut cherry branches C3 dipped in test solution, bud development stage; format: in vivo, Prunus avium; parameters: key to Bud development stage, cherry branches C3: Stage 0: Buds unchanged; Stage 1: Buds slightly swollen, first green tips visible; Stage 2: strongly swollen, green buds; Stage 3: Buds before breaking open, leaf or flower root already visible; Stage 4: Flower buds fully developed, but still closed, white petals already visible. In the case of the grapevine, stage 4 was the unfolding of the first leaves; Stage 5: Flowers fully open or, in the case of grapevine, unfolding of the flower roots (“Gescheine”) on the fully leafed sprouts; settings: for Dormancy-breaking effect according to the definition, cherry C3: stage 4 reached or exceeded after 27 days vs negative control
How it was run: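 Cut branches kept in water jars in a greenhouse at about 22° C. under natural light after dipping in aqueous solution of 0.15 mol test substance (0.075 mol for bis-cyanamides) plus 0.15 g BreakThru OE-446 per 500 g. Bud development scored on a stage scale from closed buds to fully open flowers.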

[5] = T1 (14 d), 0.15 mol (A-14, A-15: 0.075 mol) per 500 g solution

SMILES	Bud development stage, apple branches C2 [1, 5]	Bud development stage, apple branches C2 ([1]; T2 (16 d))	Bud development stage, apple branches C2 ([1]; T3 (21 d))	Bud development stage, apple branches C2 ([1]; T4 (27 d))	Bud development stage, apple branches C2 ([1]; T5 (36 d))	Bud development stage, apple branches C2 ([1]; T6 (56 d))	Bud development stage, apple branches C1 [2, 5]	Bud development stage, apple branches C1 ([2]; T2 (16 d))	Bud development stage, apple branches C1 ([2]; T3 (21 d))	Bud development stage, apple branches C1 ([2]; T4 (27 d))	Bud development stage, apple branches C1 ([2]; T5 (36 d))	Bud development stage, apple branches C1 ([2]; T6 (56 d))	Bud development stage, wine sprouts C4 [3, 5]	Bud development stage, wine sprouts C4 ([3]; T2 (16 d))	Bud development stage, wine sprouts C4 ([3]; T3 (21 d))	Bud development stage, wine sprouts C4 ([3]; T4 (27 d))	Bud development stage, wine sprouts C4 ([3]; T5 (36 d))	Bud development stage, wine sprouts C4 ([3]; T6 (56 d))	Bud development stage, cherry branches C3 [4, 5]	Bud development stage, cherry branches C3 ([4]; T2 (16 d))	other results
CC(C)C(=O)NC#N.[Na] [Example A-7, Sodium isobutyryl cyanamide]	0	0	1	1	5	5	2	3	4	5	5	5	0	0	0	2	5	5	0	0	melting point: 127 to 133 °C; Dormancy-breaking effect according to the definition, apple C2 [1]: dormancy-breaking effect; Good to very good dormancy-breaking effect, apple C1 [2]: good to very good dormancy-breaking effect; Dormancy-breaking effect according to the definition, apple C1 [2]: dormancy-breaking effect; Dormancy-breaking effect according to the definition, wine C4 [3]: dormancy-breaking effect; Bud development stage, cherry branches C3 ([4]; T3 (21 d)): 1; Bud development stage, cherry branches C3 ([4]; T4 (27 d)): 2; Bud development stage, cherry branches C3 ([4]; T5 (36 d)): 4; Bud development stage, cherry branches C3 ([4]; T6 (56 d)): 5
CCC(=O)NC#N.[Na] [Example A-5, Sodium propionyl cyanamide]	0	0	0	1	3	4	2	2	4	5	5	5	0	0	0	1	3	5	1	2	melting point: 143 °C (dec.); Good to very good dormancy-breaking effect, apple C1 [2]: good to very good dormancy-breaking effect; Dormancy-breaking effect according to the definition, apple C1 [2]: dormancy-breaking effect; Bud development stage, cherry branches C3 ([4]; T3 (21 d)): 4; Bud development stage, cherry branches C3 ([4]; T4 (27 d)): 4; Bud development stage, cherry branches C3 ([4]; T5 (36 d)): 4; Bud development stage, cherry branches C3 ([4]; T6 (56 d)): 5; Good to very good dormancy-breaking effect, cherry C3 ([4]; stage 4 reached or exceeded after 21 days vs negative control): good to very good dormancy-breaking effect; Dormancy-breaking effect according to the definition, cherry C3 [4]: dormancy-breaking effect
CCCC(=O)NC#N.[Na] [Example A-6, Sodium butyryl cyanamide]	0	0	1	2	5	5	2	3	4	5	5	5	0	0	0	1	2	5	1	1	Dormancy-breaking effect according to the definition, apple C2 [1]: dormancy-breaking effect; Good to very good dormancy-breaking effect, apple C1 [2]: good to very good dormancy-breaking effect; Dormancy-breaking effect according to the definition, apple C1 [2]: dormancy-breaking effect; Bud development stage, cherry branches C3 ([4]; T3 (21 d)): 3; Bud development stage, cherry branches C3 ([4]; T4 (27 d)): 5; Bud development stage, cherry branches C3 ([4]; T5 (36 d)): 5; Bud development stage, cherry branches C3 ([4]; T6 (56 d)): 5; Dormancy-breaking effect according to the definition, cherry C3 [4]: dormancy-breaking effect
Cc1ccc(C(=O)NC#N)cc1.[Na] [Example A-13, Sodium-4-methyl-benzoyl-cyanamide]	0	0	1	3	3	5	0	0	0	1	4	4	0	0	0	1	3	5	0	0	melting point: 340 °C (dec.); Dormancy-breaking effect according to the definition, apple C1 [2]: dormancy-breaking effect; Bud development stage, cherry branches C3 ([4]; T3 (21 d)): 0; Bud development stage, cherry branches C3 ([4]; T4 (27 d)): 1; Bud development stage, cherry branches C3 ([4]; T5 (36 d)): 2; Bud development stage, cherry branches C3 ([4]; T6 (56 d)): 5
N#CNC(=O)CCCCC(=O)NC#N.[Na].[Na] [Example A-15, Disodium-(5-(cyano-amidocarbonyl)-pentanoyl-cyanamide)]	0	0	1	5	5	5	0	0	1	2	3	4	0	0	0	1	4	5	0	1	Good to very good dormancy-breaking effect, apple C2 ([1]; stage 4 reached or exceeded after 27 days vs negative control): good to very good dormancy-breaking effect; Dormancy-breaking effect according to the definition, apple C2 [1]: dormancy-breaking effect; Dormancy-breaking effect according to the definition, wine C4 [3]: dormancy-breaking effect; Bud development stage, cherry branches C3 ([4]; T3 (21 d)): 1; Bud development stage, cherry branches C3 ([4]; T4 (27 d)): 1; Bud development stage, cherry branches C3 ([4]; T5 (36 d)): 2; Bud development stage, cherry branches C3 ([4]; T6 (56 d)): 4
